Read-outs that look alike come from different tables or passages of the source.
How the values were obtained:
Serratia marcescens = experiment: Expected efficacy of antibiotic agents; assay type: cell-based; settings: Gram: neg
Clostridium perfringens = assay type: cell-based
[1] = test system: Acinetobacter calcoaceticus; experiment: Expected efficacy of antibiotic agents; assay type: cell-based; settings: Gram: neg
Proteus vulgaris = experiment: Expected efficacy of antibiotic agents; assay type: cell-based; settings: Gram: neg
Salmonella typhi = experiment: Expected efficacy of antibiotic agents; assay type: cell-based; settings: Gram: neg
Shigella sonnei = experiment: Expected efficacy of antibiotic agents; assay type: cell-based; settings: Gram: neg
Citrobacter diversus = experiment: Expected efficacy of antibiotic agents; assay type: cell-based; settings: Gram: neg
Bordetella pertussis = experiment: Expected efficacy of antibiotic agents; assay type: cell-based; settings: Gram: neg
Francisella tularensis = assay type: cell-based
Haemophilus ducreyi = experiment: Expected efficacy of antibiotic agents; assay type: cell-based; settings: Gram: neg
Pseudomonas aeruginosa = experiment: Expected efficacy of antibiotic agents; assay type: cell-based; settings: Gram: neg
Providencia stuartii = experiment: Expected efficacy of antibiotic agents; assay type: cell-based; settings: Gram: neg
Streptococcus pyogenes = experiment: Expected efficacy of antibiotic agents; assay type: cell-based; settings: Gram: pos
Enterobacter aerogenes = experiment: Expected efficacy of antibiotic agents; assay type: cell-based; settings: Gram: neg
Citrobacter freundii = experiment: Expected efficacy of antibiotic agents; assay type: cell-based; settings: Gram: neg
Haemophilus influenzae = experiment: Expected efficacy of antibiotic agents; assay type: cell-based; settings: Gram: neg
[2] = test system: Klebsiella (Calymmatobacterium) granulomatis; experiment: Expected efficacy of antibiotic agents; assay type: cell-based; settings: Gram: neg
Legionella pneumophila = assay type: cell-based
[3] = test system: Staphylococcus aureus (MSSA); experiment: Expected efficacy of antibiotic agents; assay type: cell-based; settings: Gram: pos
Campylobacter jejuni = experiment: Expected efficacy of antibiotic agents; assay type: cell-based; settings: Gram: neg
[4] = test system: gram-positive staphylococci and streptococci; settings: general description, no test given; cited from earlier work
Corynebacterium jeikeium = experiment: Expected efficacy of antibiotic agents; assay type: cell-based; settings: Gram: pos
Acinetobacter lwoffii = experiment: Expected efficacy of antibiotic agents; assay type: cell-based; settings: Gram: neg
Neisseria meningitidis = experiment: Expected efficacy of antibiotic agents; assay type: cell-based; settings: Gram: neg
Neisseria gonorrhoeae = experiment: Expected efficacy of antibiotic agents; assay type: cell-based; settings: Gram: neg
Enterobacter cloacae = experiment: Expected efficacy of antibiotic agents; assay type: cell-based; settings: Gram: neg
Escherichia coli = experiment: Expected efficacy of antibiotic agents; assay type: cell-based; settings: Gram: neg
Klebsiella oxytoca = experiment: Expected efficacy of antibiotic agents; assay type: cell-based; settings: Gram: neg
Rickettsiae = assay type: cell-based
Moraxella catarrhalis = experiment: Expected efficacy of antibiotic agents; assay type: cell-based; settings: Gram: neg
Klebsiella pneumoniae = experiment: Expected efficacy of antibiotic agents; assay type: cell-based; settings: Gram: neg
Brucella species = assay type: cell-based
Shigella flexneri = experiment: Expected efficacy of antibiotic agents; assay type: cell-based; settings: Gram: neg
Yersinia pestis = assay type: cell-based
[5] = test system: Corynebacterium urealyticum; experiment: Expected efficacy of antibiotic agents; assay type: cell-based; settings: Gram: pos
Enterobacter sakazakii = experiment: Expected efficacy of antibiotic agents; assay type: cell-based; settings: Gram: neg
Providencia rettgeri = experiment: Expected efficacy of antibiotic agents; assay type: cell-based; settings: Gram: neg
Shigella dysenteriae = experiment: Expected efficacy of antibiotic agents; assay type: cell-based; settings: Gram: neg
Pseudomonas fluorescens = experiment: Expected efficacy of antibiotic agents; assay type: cell-based; settings: Gram: neg
Morganella morganii = experiment: Expected efficacy of antibiotic agents; assay type: cell-based; settings: Gram: neg
Shigella boydii = experiment: Expected efficacy of antibiotic agents; assay type: cell-based; settings: Gram: neg
[6] = test system: Methicillin resistant staph aureus (MRSA); experiment: Expected efficacy of antibiotic agents; assay type: cell-based; settings: Gram: pos
Vibrio cholerae = experiment: Expected efficacy of antibiotic agents; assay type: cell-based; settings: Gram: neg
Proteus mirabilis = experiment: Expected efficacy of antibiotic agents; assay type: cell-based; settings: Gram: neg
Acinetobacter baumannii = experiment: Expected efficacy of antibiotic agents; assay type: cell-based; settings: Gram: neg
Bartonella bacilliformis = experiment: Expected efficacy of antibiotic agents; assay type: cell-based; settings: Gram: neg
Aspergillus fumigatus = experiment: Expected efficacy of antifungal agents; assay type: cell-based
Histoplasma capsulatum = assay type: cell-based; settings: expected efficacy
Aspergillus flavus = experiment: Expected efficacy of antifungal agents; assay type: cell-based
Cryptococcus neoformans = experiment: Expected efficacy of antifungal agents; assay type: cell-based
Blastomyces dermatitidis = experiment: Expected efficacy of antifungal agents; assay type: cell-based
Coccidioides immitis = assay type: cell-based; settings: expected efficacy
Candida species = experiment: Expected efficacy of antifungal agents; assay type: cell-based
Peptostreptococcus = experiment: Expected efficacy of antibiotic agents; assay type: cell-based; settings: Gram: pos
Streptococcus agalactiae = experiment: Expected efficacy of antibiotic agents; assay type: cell-based; settings: Gram: pos
[7] = test system: Viridans group streptococci; experiment: Expected efficacy of antibiotic agents; assay type: cell-based; settings: Gram: pos
Bacteroides fragilis = experiment: Expected efficacy of antibiotic agents; assay type: cell-based; settings: Gram: anaer
Diphtheroids = experiment: Expected efficacy of antibiotic agents; assay type: cell-based; settings: Gram: pos
Chlamydia pneumoniae = experiment: Expected efficacy of antibiotic agents; assay type: cell-based; settings: Gram: n/a
Streptococcus pneumoniae = experiment: Expected efficacy of antibiotic agents; assay type: cell-based; settings: Gram: pos
[8] = test system: Staphylococcus epidermidis; experiment: Expected efficacy of antibiotic agents; assay type: cell-based; settings: Gram: pos
Enterococcus faecium = experiment: Expected efficacy of antibiotic agents; assay type: cell-based; settings: Gram: pos
Mycoplasma pneumoniae = experiment: Expected efficacy of antibiotic agents; assay type: cell-based; settings: Gram: n/a
Chlamydia psittaci = assay type: cell-based
Enterococcus faecalis = experiment: Expected efficacy of antibiotic agents; assay type: cell-based; settings: Gram: pos
Clostridium difficile = experiment: Expected efficacy of antibiotic agents; assay type: cell-based; settings: Gram: anaer
Chlamydia trachomatis = experiment: Expected efficacy of antibiotic agents; assay type: cell-based; settings: Gram: n/a
[9] = test system: Haemophilus parainfluenzae; experiment: Expected efficacy of antibiotic agents; assay type: cell-based; settings: Gram: neg

## C/C(=C\C(=O)OCCCCCCCCC(=O)O)C[C@@H]1OC[C@H](C[C@@H]2O[C@H]2[C@@H](C)[C@H](C)O)[C@@H](O)[C@H]1O [Bactroban, Mupirocin]
Serratia marcescens
  efficacy against Serratia marcescens: no
Clostridium perfringens; expected efficacy, Gram: anaer
  efficacy against Clostridium perfringens: no
[1]
  efficacy against Acinetobacter calcoaceticus: no
Proteus vulgaris
  efficacy against Proteus vulgaris: no
Salmonella typhi
  efficacy against Salmonella typhi: no
Shigella sonnei
  efficacy against Shigella sonnei: no
Citrobacter diversus
  efficacy against Citrobacter diversus: no
Bordetella pertussis
  efficacy against Bordetella pertussis: no
Francisella tularensis; expected efficacy, Gram: neg
  efficacy against Francisella tularensis: no
Haemophilus ducreyi
  efficacy against Haemophilus ducreyi: no
Pseudomonas aeruginosa
  efficacy against Pseudomonas aeruginosa: no
Providencia stuartii
  efficacy against Providencia stuartii: no
Streptococcus pyogenes
  efficacy against Streptococcus pyogenes: yes
Enterobacter aerogenes
  efficacy against Enterobacter aerogenes: no
Citrobacter freundii
  efficacy against Citrobacter freundii: no
Haemophilus influenzae
  efficacy against Haemophilus influenzae: no
[2]
  efficacy against Klebsiella (Calymmatobacterium) granulomatis: no
Legionella pneumophila; expected efficacy, Gram: neg
  efficacy against Legionella pneumophila: no
[3]
  efficacy against Staphylococcus aureus (MSSA): yes
Campylobacter jejuni
  efficacy against Campylobacter jejuni: no
[4]
  activity against gram-positive staphylococci and streptococci: excellent activity
Corynebacterium jeikeium
  efficacy against Corynebacterium jeikeium: no
Acinetobacter lwoffii
  efficacy against Acinetobacter lwoffii: no
Neisseria meningitidis
  efficacy against Neisseria meningitidis: no
Neisseria gonorrhoeae
  efficacy against Neisseria gonorrhoeae: no
Enterobacter cloacae
  efficacy against Enterobacter cloacae: no
Escherichia coli
  efficacy against Escherichia coli: no
Klebsiella oxytoca
  efficacy against Klebsiella oxytoca: no
Rickettsiae; expected efficacy, Gram: neg
  efficacy against Rickettsiae: no
Moraxella catarrhalis
  efficacy against Moraxella catarrhalis: no
Klebsiella pneumoniae
  efficacy against Klebsiella pneumoniae: no
Brucella species; expected efficacy, Gram: neg
  efficacy against Brucella species: no
Shigella flexneri
  efficacy against Shigella flexneri: no
Yersinia pestis; expected efficacy, Gram: neg
  efficacy against Yersinia pestis: no
[5]
  efficacy against Corynebacterium urealyticum: no
Enterobacter sakazakii
  efficacy against Enterobacter sakazakii: no
Providencia rettgeri
  efficacy against Providencia rettgeri: no
Shigella dysenteriae
  efficacy against Shigella dysenteriae: no
Pseudomonas fluorescens
  efficacy against Pseudomonas fluorescens: no
Morganella morganii
  efficacy against Morganella morganii: no
Shigella boydii
  efficacy against Shigella boydii: no
[6]
  efficacy against Methicillin resistant staph aureus (MRSA): yes
Vibrio cholerae
  efficacy against Vibrio cholerae: no
Proteus mirabilis
  efficacy against Proteus mirabilis: no
Acinetobacter baumannii
  efficacy against Acinetobacter baumannii: no
Bartonella bacilliformis
  efficacy against Bartonella bacilliformis: no

## OC(Cn1cncn1)(Cn1cncn1)c1ccc(F)cc1F [Fluconazole]
Aspergillus fumigatus
  efficacy against Aspergillus fumigatus: yes
Histoplasma capsulatum
  efficacy against Histoplasma capsulatum: yes
Aspergillus flavus
  efficacy against Aspergillus flavus: yes
Cryptococcus neoformans
  efficacy against Cryptococcus neoformans: yes
Blastomyces dermatitidis
  efficacy against Blastomyces dermatitidis: yes
Coccidioides immitis
  efficacy against Coccidioides immitis: yes
Candida species
  efficacy against Candida species: yes

## CN[C@H](CC(C)C)C(=O)N[C@H]1C(=O)N[C@@H](CC(N)=O)C(=O)N[C@H]2C(=O)N[C@H]3C(=O)N[C@H](C(=O)N[C@H](C(=O)O)c4cc(O)cc(O)c4-c4cc3ccc4O)[C@H](O)c3ccc(c(Cl)c3)Oc3cc2cc(c3O[C@@H]2O[C@H](CO)[C@@H](O)[C@H](O)[C@H]2O[C@H]2C[C@](C)(N)[C@H](O)[C@H](C)O2)Oc2ccc(cc2Cl)[C@H]1O [Vancomycin]
Peptostreptococcus
  efficacy against Peptostreptococcus: yes
Serratia marcescens
  efficacy against Serratia marcescens: no
Clostridium perfringens
  efficacy against Clostridium perfringens: no
[1]
  efficacy against Acinetobacter calcoaceticus: no
Proteus vulgaris
  efficacy against Proteus vulgaris: no
Salmonella typhi
  efficacy against Salmonella typhi: no
Streptococcus agalactiae
  efficacy against Streptococcus agalactiae: yes
[7]
  efficacy against Viridans group streptococci: yes
Shigella sonnei
  efficacy against Shigella sonnei: no
Bacteroides fragilis
  efficacy against Bacteroides fragilis: no
Diphtheroids
  efficacy against Diphtheroids: yes
Citrobacter diversus
  efficacy against Citrobacter diversus: no
Bordetella pertussis
  efficacy against Bordetella pertussis: no
Chlamydia pneumoniae
  efficacy against Chlamydia pneumoniae: no
Francisella tularensis
  efficacy against Francisella tularensis: no
Haemophilus ducreyi
  efficacy against Haemophilus ducreyi: no
Pseudomonas aeruginosa
  efficacy against Pseudomonas aeruginosa: no
Providencia stuartii
  efficacy against Providencia stuartii: no
Streptococcus pyogenes
  efficacy against Streptococcus pyogenes: yes
Streptococcus pneumoniae
  efficacy against Streptococcus pneumoniae: yes
Enterobacter aerogenes
  efficacy against Enterobacter aerogenes: no
Citrobacter freundii
  efficacy against Citrobacter freundii: no
Haemophilus influenzae
  efficacy against Haemophilus influenzae: no
[2]
  efficacy against Klebsiella (Calymmatobacterium) granulomatis: no
Legionella pneumophila
  efficacy against Legionella pneumophila: no
[3]
  efficacy against Staphylococcus aureus (MSSA): yes
Campylobacter jejuni
  efficacy against Campylobacter jejuni: no
Corynebacterium jeikeium
  efficacy against Corynebacterium jeikeium: yes
Acinetobacter lwoffii
  efficacy against Acinetobacter lwoffii: no
[8]
  efficacy against Staphylococcus epidermidis: yes
Neisseria meningitidis
  efficacy against Neisseria meningitidis: no
Neisseria gonorrhoeae
  efficacy against Neisseria gonorrhoeae: no
Enterococcus faecium
  efficacy against Enterococcus faecium: yes, not VRE
Enterobacter cloacae
  efficacy against Enterobacter cloacae: no
Escherichia coli
  efficacy against Escherichia coli: no
Klebsiella oxytoca
  efficacy against Klebsiella oxytoca: no
Rickettsiae
  efficacy against Rickettsiae: no
Moraxella catarrhalis
  efficacy against Moraxella catarrhalis: no
Klebsiella pneumoniae
  efficacy against Klebsiella pneumoniae: no
Brucella species
  efficacy against Brucella species: no
Shigella flexneri
  efficacy against Shigella flexneri: no
Yersinia pestis
  efficacy against Yersinia pestis: no
[5]
  efficacy against Corynebacterium urealyticum: yes
Mycoplasma pneumoniae
  efficacy against Mycoplasma pneumoniae: no
Enterobacter sakazakii
  efficacy against Enterobacter sakazakii: no
Providencia rettgeri
  efficacy against Providencia rettgeri: no
Shigella dysenteriae
  efficacy against Shigella dysenteriae: no
Pseudomonas fluorescens
  efficacy against Pseudomonas fluorescens: no
Chlamydia psittaci
  efficacy against Chlamydia psittaci: no
Morganella morganii
  efficacy against Morganella morganii: no
Shigella boydii
  efficacy against Shigella boydii: no
Enterococcus faecalis
  efficacy against Enterococcus faecalis: yes
Clostridium difficile
  efficacy against Clostridium difficile: yes
[6]
  efficacy against Methicillin resistant staph aureus (MRSA): yes
Vibrio cholerae
  efficacy against Vibrio cholerae: no
Chlamydia trachomatis
  efficacy against Chlamydia trachomatis: no
Proteus mirabilis
  efficacy against Proteus mirabilis: no
[9]
  efficacy against Haemophilus parainfluenzae: no
Acinetobacter baumannii
  efficacy against Acinetobacter baumannii: no
Bartonella bacilliformis
  efficacy against Bartonella bacilliformis: no

Source: patent US9707229B2, “Compositions and methods for treating an infection” (CMPD LICENSING, LLC, priority 2015, dated 2017)
